Measurements reported in US9650497B2, “Phosphonamidates-synthesis and flame retardant applications” (EMPA EIDGENOSSISCHE MATERIALPRUFUNGS- UND FORSCHUNGSANSTALT, priority 2011, dated 2017).
Read-outs that look alike come from different tables or passages of the source.

Assays:
[1] = TGA thermal decomposition of DOPO and amino DOPO derivatives; assay type: physicochemical; conditions: for TdMax: Temperature for maximum decomposition rate: several values = multiple decomposition stages
Method: One of the important objectives of developing various amino derivatives of DOPO was to improve the thermal stability of DOPO itself. This will ensure their suitability to be used in thermoplastic polymers which require usually high processing temperatures (200-350° C.).

[2] = BKZ flammability test (Swiss standard, vertical burning)
Method: The synthesized compounds were evaluated for flame retardant properties by incorporating them in flexible PU foams.
The flexible polyurethane foams were manufactured according to the recipe mentioned in Table 3 below.
The manufacture of the foams according to the formulations in Table 3 was done by handmix in the laboratory based on 200 gms polyol. The formulation of the components taking part in the reaction was identical in all cases except for the addition of Flame retardants where indicated.
The resulting foams were dried and aged for 3 h at 80° C. The foams were then tested for their flammability according to Swiss flammability standard (BKZ). It's a vertical burning test for foamed materials with a specific sample size (length: 160 mm, width: 60 mm, thickness: 6 mm±10% tolerance). For each specimen flame test (BKZ) was performed in triplicate. If the results were not consistent, each specimen was tested 6 times. For the BKZ test an air dried specimen was placed in a vertical position and subjected to flame from the lower front edge by a standardized flame. The flame height of 20 mm was maintained and should burn constantly with sharp outlines. The burner position was adjusted 45° so that the flame hits the specimen vertically in the middle of the lower front edge. The flame is brought in contact with the foam for 15 sec and should be placed such that the foam bottom is approximately 4±1 mm inside the flame from the tip.

[3] = UL-94 HB test (ASTM D4986 or ISO/DIS 9772.3, horizontal); conditions: for flame retardancy effect compared to unmodified DOPO: Table 6; for UL 94 HB test rating (Horizontal): OH terminated prepolymer foam
[4] = Water solubility of DOPO compounds; assay type: physicochemical; conditions: for water solubility in words: up to 90° C.; for solubility: water
Description: These DOPO-derivatives are very barely soluble in water as it is exemplarily shown for EDAB-DOPO and TEPA-PDOPO in table 2.

[5] = Small Burner test, DIN 4102-1 class B2, edge application of flame; conditions: spray foam
Method: The Small Burner test equipment employed within this patent is in accordance to the requirements for the tests of the building materials class B2 specified in DIN 4102-1.
All flame tests done within this report are based on edge application of the impinging flame.
The B2-burner tests were carried out approx. one week after foaming.

[6] = 5% FR in flexible PU foam (Table 3 recipe, handmix)
[7] = 25° C., read-out: solubilitiy FR in water mg/L
[8] = 25° C., read-out: solubilitiy FR in water mmol/L
[9] = 90° C., read-out: solubilitiy FR in water mg/L
[10] = 90° C., read-out: solubilitiy FR in water mmol/L

C=CCNP1(=O)Oc2ccccc2-c2ccccc21 (centres unmarked) [AA-DOPO]
Td1: Temperature for 10% weight loss [1]: 247 °C
% Char at 800° C. [1]: 3%
TdMax: Temperature for maximum decomposition rate [1]: 295 °C
BKZ Classification [2, 6]: Class 5 (flame does not reach the top level of the sample holder (150 mm). duration ≦ 20 s)
Burning Rate ([3]; 5% FR in flexible PU foam): 47 mm/min
UL-94 HB Rating ([3]; 5% FR in flexible PU foam): HF-2
flame retardancy effect compared to unmodified DOPO ([3]; 5% FR in flexible PU foam): better flame retardancy effect as compared to unmodified DOPO

O=[PH]1Oc2ccccc2-c2ccccc21 (centres unmarked) [DOPO, 9,10-dihydro-9-oxa-phosphaphenanthrene-10-oxide, reference compound]
Td1: Temperature for 10% weight loss [1]: 201 °C
temperature at which decomposition starts [1]: < 200 °C
% Char at 800° C. [1]: 2%
TdMax: Temperature for maximum decomposition rate [1]: 267 °C
BKZ Classification [2, 6]: Class 5 (flame does not reach the top level of the sample holder (150 mm). duration ≦ 20 s)
Burning Rate ([3]; 5% FR in flexible PU foam): 48 mm/min
UL-94 HB Rating ([3]; 5% FR in flexible PU foam): HBF

O=P1(NCCOP2(=O)Oc3ccccc3-c3ccccc32)Oc2ccccc2-c2ccccc21 (centres unmarked) [EAB-DOPO]
Td1: Temperature for 10% weight loss [1]: 311 °C
% Char at 800° C. [1]: 2%
TdMax: Temperature for maximum decomposition rate [1]: 387 °C

O=P1(NCCNP2(=O)Oc3ccccc3-c3ccccc32)Oc2ccccc2-c2ccccc21 (centres unmarked) [EDAB-DOPO]
Td1: Temperature for 10% weight loss [1]: 355 °C
% Char at 800° C. [1]: 7%
TdMax: Temperature for maximum decomposition rate [1]: 415 °C
water solubility in words [4]: only very small amounts
solubility [4, 7]: 393 mg/L
solubility [4, 8]: 0.8 mmol/L
solubility [4, 9]: 501 mg/L
solubility [4, 10]: 1.03 mmol/L
BKZ Classification [2, 6]: Class 5 (flame does not reach the top level of the sample holder (150 mm). duration ≦ 20 s)
flammability performance versus TCPP ([2]; polyether foam, lower density, 2.8 pphp water, columns 3 and 5): works better at least in vertical tests
effect on flammability versus foam without FR ([2]; polyether foam, water 1.6 pphp, columns 4 and 1): positive effect on flammability
flammability performance versus TCPP ([2]; polyether foam, water 1.6 pphp, columns 4 and 2): works at least as well than TCPP
Burning Rate ([3]; 5% FR in flexible PU foam): 25 mm/min
UL-94 HB Rating ([3]; 5% FR in flexible PU foam): HF-1
flame retardancy effect compared to unmodified DOPO ([3]; 5% FR in flexible PU foam): better flame retardancy effect as compared to unmodified DOPO
effect of doubling the amount of FR on flame height and extinguishing of the flame [5]: no significant effect

O=P1(N2CCN(P3(=O)Oc4ccccc4-c4ccccc43)CC2)Oc2ccccc2-c2ccccc21 (centres unmarked) [PB-DOPO]
Td1: Temperature for 10% weight loss [1]: 387 °C
% Char at 800° C. [1]: 5%
TdMax: Temperature for maximum decomposition rate [1]: 433 °C
BKZ Classification [2, 6]: Class 5 (flame does not reach the top level of the sample holder (150 mm). duration ≦ 20 s)
Burning Rate ([3]; 5% FR in flexible PU foam): 57 mm/min
UL-94 HB Rating ([3]; 5% FR in flexible PU foam): HBF

CC(CCl)OP(=O)(OC(C)CCl)OC(C)CCl (centres unmarked) [TCPP, Tris(2-chlorisopropyl)phosphate, reference compound]
BKZ Classification [2]: Class 5 (key: Class 3: time 5-20 s; Class 4: time, duration of burning > 20 s; Class 5: flame does not reach the top level of the sample holder (150 mm). duration ≦ 20 s)
Burning Rate [3]: 23 mm/min
UL-94 HB Rating [3]: HBF

O=P1(NCCN(CCNP2(=O)Oc3ccccc3-c3ccccc32)P2(=O)Oc3ccccc3-c3ccccc32)Oc2ccccc2-c2ccccc21 (centres unmarked) [TDETA-DOPO]
Td1: Temperature for 10% weight loss [1]: 294 °C
% Char at 800° C. [1]: 2%
TdMax: Temperature for maximum decomposition rate [1]: 385 °C
BKZ Classification [2, 6]: Class 5 (flame does not reach the top level of the sample holder (150 mm). duration ≦ 20 s)
UL-94 HB Rating ([3]; 5% FR in flexible PU foam): HF-1

O=P1(NCCN(CCN(CCN(CCNP2(=O)Oc3ccccc3-c3ccccc32)P2(=O)Oc3ccccc3-c3ccccc32)P2(=O)Oc3ccccc3-c3ccccc32)P2(=O)Oc3ccccc3-c3ccccc32)Oc2ccccc2-c2ccccc21 (centres unmarked) [TEPA-PDOPO, tetraethylenepentaamine DOPO]
water solubility in words [4]: only very small amounts
solubility [4, 7]: 15.4 mg/L
solubility [4, 8]: 0.01 mmol/L
solubility [4, 9]: 818 mg/L
solubility [4, 10]: 0.65 mmol/L
BKZ Classification [2, 6]: Class 5 (flame does not reach the top level of the sample holder (150 mm). duration ≦ 20 s)
BKZ Class (Vertical) ([2]; 10 pphp FR, OH terminated prepolymer foam): 5
effect of more FR on flammability behavior ([2]; OH terminated prepolymer foam, 5 vs 10 pphp, horizontal and vertical tests): improves flammability behavior in both horizontal and vertical tests
UL-94 HB Rating ([3]; 5% FR in flexible PU foam): HF-1
UL 94 HB test rating (Horizontal) ([3]; 5 pphp FR): HF2
UL 94 HB test rating (Horizontal) ([3]; 10 pphp FR): HF1
effect of doubling the amount of FR on flame height and extinguishing of the flame [5]: no significant effect

CCO[Si](CCCNP1(=O)Oc2ccccc2-c2ccccc21)(OCC)OCC (centres unmarked) [TESPA-DOPO]
Td1: Temperature for 10% weight loss [1]: 234 °C
% Char at 800° C. [1]: 28%
TdMax: Temperature for maximum decomposition rate [1]: 135/287/437
